Consider seven compounds from patent publication US12038377B2, “Devices, compositions and methods for imaging with Raman scattering” (THE TRUSTEES OF COLUMBIA UNIVERSITY IN THE CITY OF NEW YORK, priority 2013, dated 2024).

Data set [1] relates to HeLa cells. The note with it: 2 mM methionine competing with 2 mM Hpg, live HeLa cells.
Experimental: FIG. 12f illustrates live Hela cells incubated with 2 mM Hpg alone (alkyne-on) and with 2 mM methionine (Control). […] For FIG. 12b, FIG. 12d, and FIG. 12f, alkyne-off and amide images display the same set of cells as the alkyne-on images; lipid images capture the same cells as control images.
Sample preparation for SRS imaging of live cells and organisms. For all SRS imaging experiments of HeLa cells (e.g. FIGS. 12a-12j), cells were first Seeded on coverslips with a density of 1×10^5/mL in petri dishes with 2 mL DMEM culture medium for 20 h at 37° C. and 5% CO2. • 1) EdU experiment, DMEM culture medium was then changed to DMEM medium (FBS-free) for 24 h for cell cycle synchronization. After synchronization, medium was replaced back to DMEM culture medium and EdU (10 mM stock in PBS) was simultaneously added to a concentration of 100 μM for 15 h. • 2) EU experiment, EU (100 mM stock in PBS) was added to the DMEM culture medium directly to a concentration of 2 mM for 7 h. • 3) Hpg experiment, DMEM culture medium was then changed to methionine-deficient culture medium for 1 h, followed by supplying 2 mM Hpg (200 mM stock in PBS) in the medium for 24 h. • 4) Propargylcholine and EdU dual-color experiment, DMEM culture medium was changed to DMEM medium (FBS-free) for synchronization. […]
Data set [2] concerns HeLa cells. Briefly: Alkyne-D-glucose uptake and competition in live HeLa cells (SRS). The class given is cell-based.
Data set [3] concerns hippocampal neuronal cultures. Briefly: Pulse-chase imaging of proteome turnover in hippocampal neuronal cultures under proteasomal stress. The data set is classed as cell-based. The protocol: Regular Medium of D12 hippocampal neuronal cultures was replaced by methionine-deficient medium containing 1 mM L-Homopropargylglycine (e.g., HPG, C10186, Invitrogen) for 12 h. The medium was then exchanged to fresh methionine-deficient medium containing 1 mM AHA with or without 10 μM MG132 (e.g., M7449 SIGMA) for another 10 h. Cells were fixed with 4% PFA for 20 min, permeabilized with 0.5% Triton for 15 min. The immuno-staining procedures were the same as described above. Then 1.25 μM MARS2228-azide with Click-iT® Cell Reaction Buffer was added to cells/slices to react with HPG for 20 min. After washing with PBS, 4 μM Alexa 647-alkyne with Click-iT® Cell Reaction Buffer was added to react with AHA for 20 min. Cells were washed with PBS before imaging.
6 technical replicates of 8-colour images were acquired from 3 independent neuronal co-cultures (e.g., the same condition as described above for FIGS. 48d1-48d5) for statistical presentation. […] Cross-checking 8-colour staining, the percentages of astrocytes with aggregations (e.g., the number of astrocytes with aggregations divided by the total number of astrocytes) and the percentages of neurons with aggregations (e.g., the number of neurons with aggregations divided by the total number of neurons) were calculated for each image sets. […]

The subject of data set [4] is protein synthesis in HeLa cells. Briefly: Protein synthesis inhibition in HeLa cells incubated with deuterium-labeled all amino acids (C-D signal). The data set is classed as cell-based. The note with it: 5 μM anisomycin. On the procedure:
FIGS. 34a-34i is a set of exemplary images based on SRS imaging of time-dependent de novo protein synthesis and drug-induced protein synthesis inhibition effect in live HeLa cells incubated in deuterium-labeled all amino acid medium. […] As a control, the amide I (1655 cm^−1) signal remains at a steady state over time (5 hrs—FIG. 34d, 12 hrs—FIG. 34e, 20 hrs—FIG. 34f). FIGS. 34g-34i illustrate ratio images between the SRS image at 2133 cm^−1 (newly synthesized proteins) and the SRS image at 1655 cm^−1 (the amide I band from total proteins), representing the relative new protein fraction with subcellular resolution at each time point (5 hrs—FIG. 34g, 12 hrs—FIG. 34h, 20 hrs—FIG. 34i). The bar represents the ratio ranging from low to high.
The effect of protein synthesis inhibition by chemical drugs can be further tested to validate that the detected C-D signal indeed derives from nascent proteins. […] (See, e.g., FIG. 34k). […] Thus, the detected C-D SRS signal (e.g., FIGS. 34a-34c) can originate from deuterium-labeled nascent proteins, which can vanish upon adding the protein synthesis inhibitor.

The test system of data set [5] is RNA synthesis in HeLa cells. Briefly: SRS imaging of EU incorporation (RNA transcription), control with RNA synthesis inhibitor. The data set is classed as cell-based. The note with it: 200 nM actinomycin D, 2 mM EU, live HeLa cells. The text has this: Next, we studied RNA transcription and turnover using the alkyne-tagged uridine analogue, 5-ethynyl uridine (EU)8 in Hela cells (e.g. FIG. 12a).

Data set [6] has as its system mouse ear tissue. Briefly: SRS imaging of drug delivery into mouse ear tissue.
Text: Sample preparation for drug delivery into mouse ear tissues. […] The amide (1655 cm^−1) and lipid (2845 cm^−1) images have been applied with linear spectral unmixing to eliminate cross talk before composition.
FIG. 17a depicts Raman spectra of a drug cream, Lamisil, containing 1% TH and mouse ear skin tissue. FIGS. 17b-17e illustrate SRS imaging of tissue layers from stratum corneum (z=4 μm) to viable epidermis (z=24 μm), sebaceous gland (z=48 μm) and subcutaneous fat (z=88 μm). To facilitate tissue penetration, DMSO solution containing 1% TH was applied onto the ears of an anesthetized live mouse for 30 min and the dissected ears are imaged afterwards. […] The composite images show protein (1655 cm^−1) and lipid (2845 cm^−1) distributions.
FIGS. 18a and 18b show SRS imaging of the viable epidermis layer (z=20 μm) and the sebaceous gland layer (z=40 μm). […] The composite images show both protein (1655 cm^−1) and lipid (2845 cm^−1) distributions.
Data set [7] deals with DNA synthesis in HeLa cells. The data set can be described thus: SRS imaging of EdU incorporation during de novo DNA synthesis, control with DNA synthesis inhibitor. The data set is classed as cell-based. To be noted: 10 mM hydroxyurea, 100 μM EdU, live HeLa cells.

Counter-ions that a name gives are not always drawn. Starred links: 1 amine or outer side, 2 acyl side, 3 side chain; linkers in the order of their positions; H or OH if unused. Positions of bridges follow the written chain, without caps; N, C: chain ends. Non-standard residues stand in square brackets, D forms with d. Residues, ends and D or L forms follow the SMILES beside them. Chains are numbered I, II in the order given. *: point of attachment. Actinocin(9to1) = Cc1c2oc3c(C)ccc(C(=O)[*:1])c3nc-2c(C(=O)[*:2])c(N)c1=O; NMeV = CN[C@H](C(=O)O)C(C)C; Cbz = O=C(OCc1ccccc1)*; Sar = CNCC(=O)O

In the case of `CSCC[C@H](N)C(=O)O` [methionine, L-methionine], the “Hpg signal (newly synthesized proteins)” value in data set [1] is listed as “causes the signal to disappear”.

In the case of `C#CCOC1C(O)C(O)OC(CO)C1O` [alkyne-D-glucose], the “glucose signal inside cells (uptake)” value in data set [2] (32 mM, live HeLa cells, 10 min to 4 h) was “increasing over time”. Besides, the “alkyne-D-glucose signal under competition with regular D-glucose” value in data set [2] (D-glucose 10 mM, 50 mM and 100 mM) was “decreases”. The “alkyne-D-glucose signal under competition with L-glucose” value in data set [2] (L-glucose) is “retained”.

In the case of `CC(C)C[C@@H](C=O)NC(=O)[C@H](CC(C)C)NC(=O)[C@H](CC(C)C)NC(=O)OCc1ccccc1` [MG132] (Cbz-Leu-Leu-Leu-aldehyde), the “cell type with proteome inclusions” value in data set [3] (10 μM MG132, neuronal co-cultures, n=6) is “proteome inclusions appeared mostly in astrocytes instead of neurons”. Further, the proteome turnover entry in data set [3] (10 μM MG132 in the chase period, 10 h) is reported as “retarded the proteome turnover”. `COc1ccc(C[C@H]2NC[C@H](O)[C@H]2OC(C)=O)cc1` [anisomycin]: in data set [4] (HeLa cells, deuterium-labeled all amino acids), the “C-D signal in the spontaneous Raman spectrum (2133 cm−1)” value is “absence of the C-D signal”. The “C-D SRS imaging signal of newly synthesized proteins” value in data set [4] (compared with no inhibitor) was “drastically weaker signal”. The “total proteome signal (2940 cm−1 image)” value in data set [4] (versus non-drug treated counterpart) is on record as “remains at a similar level”.

For the compound `Cc1c2oc3c(C)ccc(C(=O)N[C@@H]4C(=O)N[C@H](C(C)C)C(=O)N5CCC[C@H]5C(=O)N(C)CC(=O)N(C)[C@@H](C(C)C)C(=O)O[C@@H]4C)c3nc-2c(C(=O)N[C@@H]2C(=O)N[C@H](C(C)C)C(=O)N3CCC[C@H]3C(=O)N(C)CC(=O)N(C)[C@@H](C(C)C)C(=O)O[C@@H]2C)c(N)c1=O` [actinomycin D] (I: T[dV]P[Sar][NMeV] / II: T[dV]P[Sar][NMeV]; ester I:1-I:C, II:1-II:C; linker I:N-II:N via Actinocin(9to1)), the “EU alkyne-on signal (newly synthesized RNA)” value in data set [5] was “nearly disappears”. On to `CN(C/C=C/C#CC(C)(C)C)Cc1cccc2ccccc12` [terbinafine hydrochloride], for which the tissue penetration pathway entry in data set [6] (1% TH in DMSO, mouse ear, 30 min) is reported as “penetrates into tissues through the lipid phase”. In addition, the “depth of drug delivery imaged inside mouse ear tissue” value in data set [6] (internal alkyne at 2230 cm−1, 1% TH applied 30 min) is given as “about 100 μm”. Take `NC(=O)NO` [hydroxyurea]: in data set [7], the “EdU signal (newly synthesized DNA)” value is “No EdU signal shows up”.
